# Experiments:
# [1] = system: blood-flow to the myocardium; assay: Effect on blood-flow to the myocardium, anaesthetized dogs, intravenous; type: in vivo, dog; details: anaesthetized dog
# Procedure: It was undertaken on anaesthetized dogs which received the substance under study by intravenous route. The intensity of the maximum effect on blood-flow to the myocardium was expressed in percentage of the corresponding value before injection. The time required for the maximum effect to decrease by 50% represented the duration of the effect. This time was measured in minutes.
# [2] = system: epinephrine-increased blood-pressure (anti-α effect); assay: Antiadrenergic effect: anti-α effect (reduction of epinephrine-increased blood-pressure); type: in vivo; details: dog
# Procedure: (§1) The purpose of this test was to determine the capacity of the compounds under study to reduce epinephrine-increased blood-pressure (anti-α effect) and epinephrine-accelerated heart rate (anti-β effect) in the dog previously anaesthetized with pentobarbital and atropinized.
# (§2) For each dog, the dose of epinephrine was first determined which provoked a reproductible increase by about 100 mm. Hg in the arterial pressure (between 5 and 10 μg/kg). After that, the dose of epinephrine so determined was administered followed by a dose by intravenous route of the compound to be studied. The percentage of reduction of the hypertension provoked by the compound under study in comparison with the hypertension previously obtained (about 100 mm. Hg) was then registered.
# (§3) The percentage of reduction of the epinephrine-induced acceleration of heart-rate produced by the compound under study in comparison with the tachycardia previously measured (about 70 beats) was then registered. In both cases, the results were expressed as follows: […]
# (§4) + for a <50%-reduction of the increase in pressure or cardiac frequency
# (§5) ++ for a ≥50%-reduction of the increase in pressure or cardiac frequency
# (§6) +++ for a subtotal reduction of the increase in pressure or cardiac frequency
# [3] = system: epinephrine-accelerated heart rate (anti-β effect); assay: Antiadrenergic effect: anti-β effect (reduction of epinephrine-accelerated heart rate); type: in vivo; details: dog
# Procedure: as §1, §2, §3, §4, §5, §6
# [4] = Canis lupus familiaris, iv, dose 10 mg/kg i.v., read-out: Max. increase (blood-flow to the myocardium)
# [5] = Canis lupus familiaris, iv, dose 5 mg/kg i.v., read-out: Max. increase (blood-flow to the myocardium)
# [6] = Canis lupus familiaris, iv, dose 10 mg/kg i.v.
Structure (SMILES),"change in vivo at 10 mg/kg [1, 4] [%]",Time required to decrease to 50% (duration of effect) ([1]; dose 10 mg/kg i.v.) [min],also measured
"CCCN(CCC)CCCOc1ccc(C(=O)c2c(-c3ccccc3)c(Br)c3ccccn23)cc1Br [Br/Br/H/drawing 11/n-C3H7/3, 1-Bromo-2-phenyl-3-[4-(3-di-n-propylaminopropyl)-oxy-3-bromo-benzoyl]-indolizine]",100,20,
CCCCN(CCCC)CCCOc1ccc(C(=O)c2c(-c3cccc(Br)c3)c(Br)c3ccccn23)cc1Br [Br/Br/H/drawing 12/n-C4H9/3],150,100,
"CCCc1c(Br)c2ccccn2c1C(=O)c1ccc(OCCCN(CCC)CCC)c(Br)c1 [Br/Br/H/n-C3H7/n-C3H7/3, 1-Bromo-2-n-propyl-3-[4-(3-di-n-propylaminopropyl)-oxy-3-bromo-benzoyl]-indolizine]",90,20,
"CCCCc1c(Br)c2ccccn2c1C(=O)c1ccc(OCCCN(CCC)CCC)c(Br)c1 [Br/Br/H/n-C4H9/n-C3H7/3, 1-Bromo-2-n-butyl-3-[4-(3-di-n-propylaminopropyl)-oxy-3-bromo-benzoyl]-indolizine]",100,20,
CCCCN(CCCC)CCCOc1ccc(C(=O)c2c(-c3ccccc3)c(Br)c3ccccn23)cc1Cl [Br/Cl/H/drawing 17/n-C4H9/3],90,90,
CCCN(CCC)CCCOc1ccc(C(=O)c2c(-c3ccc(Br)cc3)c(Br)c3ccccn23)cc1Cl [Br/Cl/H/drawing 18/n-C3H7/3],50,50,
CCCN(CCC)CCCOc1ccc(C(=O)c2c(-c3ccc(Cl)cc3)c(Br)c3ccccn23)cc1Cl [Br/Cl/H/drawing 19/n-C3H7/3],63,45,
"CCCCN(CCCC)CCCOc1ccc(C(=O)c2c(C(C)C)c(Br)c3ccccn23)cc1Cl [Br/Cl/H/iso-C3H7/n-C4H9/3, 1-Bromo-2-isopropyl-3-[4-(3-di-n-butylaminopropyl)-oxy-3-chloro-benzoyl]-indolizine]",,,"change in vivo at 5 mg/kg [1, 5]: 133%; Time required to decrease to 50% (duration of effect) ([1]; dose 5 mg/kg i.v.): 20 min"
"CCCN(CCC)CCCOc1ccc(C(=O)c2c(-c3cccc(Br)c3)c(Cl)c3ccccn23)cc1Cl [Cl/Cl/H/drawing 21/n-C3H7/3, 1-Chloro-2-(3-bromo-phenyl)-3-[4-(3-di-n-propylaminopropyl)-oxy-3-chloro-benzoyl]-indolizine]",,,"change in vivo at 8 mg/kg ([1]; Canis lupus familiaris, iv, dose 8 mg/kg i.v., read-out: Max. increase (blood-flow to the myocardium)): 70%; Time required to decrease to 50% (duration of effect) ([1]; dose 8 mg/kg i.v.): 90 min"
CCCN(CCC)CCCOc1ccc(C(=O)c2c(-c3ccc(Cl)cc3)c(Cl)c3ccccn23)cc1 [Cl/H/H/drawing 22/n-C3H7/3],,,"change in vivo at 5 mg/kg [1, 5]: 50%; Time required to decrease to 50% (duration of effect) ([1]; dose 5 mg/kg i.v.): 40 min"
"CCCCN(CCCC)CCCOc1ccc(C(=O)c2c(CCC)c(Cl)c3ccccn23)cc1 [Cl/H/H/n-C3H7/n-C4H9/3, 1-Chloro-2-n-propyl-3-[4-(3-di-n-butylaminopropyl)-oxy-benzoyl]-indolizine]",,,Anti-α effect ([2]; dose 7.5 mg/kg i.v.): +++; Anti-β effect ([3]; dose 7.5 mg/kg i.v.): +++
CCCN(CCC)CCCOc1c(Br)cc(C(=O)c2c(-c3ccc(Br)cc3)cc3ccccn23)cc1Br [H/Br/Br/drawing 41/n-C3H7/3],,,Anti-α effect ([2]; dose 10 mg/kg i.v.): +++; Anti-β effect ([3]; dose 10 mg/kg i.v.): +++
CCCCN(CCCC)CCCOc1c(Br)cc(C(=O)c2c(-c3ccccc3)cc3ccccn23)cc1Br [H/Br/Br/drawing 42/n-C4H9/3],,,"inhibition in vivo at 10 mg/kg [2, 6]: > 50%; inhibition in vivo at 10 mg/kg [3, 6]: > 50%"
"CCCCN(CCCC)CCCOc1ccc(C(=O)c2c(CC)cc3ccccn23)cc1Br [H/Br/H/C2H5/n-C4H9/3, 2-Ethyl-3-[4-(3-di-n-butylaminopropyl)-oxy-3-bromo-benzoyl]-indolizine]",,,"Anti-α effect ([2]; dose 7.5 mg/kg i.v.): +++; inhibition in vivo at 7.5 mg/kg ([3]; Canis lupus familiaris, iv, dose 7.5 mg/kg i.v.): > 50%"
CCCCN(CCCC)CCCOc1ccc(C(=O)c2c(-c3ccc(Br)cc3)cc3ccccn23)cc1Br [H/Br/H/drawing 13/n-C4H9/3],90,25,
CCCCN(CCCC)CCCOc1ccc(C(=O)c2c(-c3ccccc3)cc3ccccn23)cc1Br [H/Br/H/drawing 24/n-C4H9/3],,,"Anti-α effect ([2]; dose 10 mg/kg i.v.): +++; inhibition in vivo at 10 mg/kg [3, 6]: > 50%"

# Source: patent US4520026A, “Indolizine derivatives and use as cardiovascular agents” (S. A. Labaz N.V., priority 1982, dated 1985)
